Read-outs that look alike come from different tables or passages of the source.
Biological target: T1, NTCP (Homo sapiens, UniProt Q14973)
T1 sequence (Q14973 1-349): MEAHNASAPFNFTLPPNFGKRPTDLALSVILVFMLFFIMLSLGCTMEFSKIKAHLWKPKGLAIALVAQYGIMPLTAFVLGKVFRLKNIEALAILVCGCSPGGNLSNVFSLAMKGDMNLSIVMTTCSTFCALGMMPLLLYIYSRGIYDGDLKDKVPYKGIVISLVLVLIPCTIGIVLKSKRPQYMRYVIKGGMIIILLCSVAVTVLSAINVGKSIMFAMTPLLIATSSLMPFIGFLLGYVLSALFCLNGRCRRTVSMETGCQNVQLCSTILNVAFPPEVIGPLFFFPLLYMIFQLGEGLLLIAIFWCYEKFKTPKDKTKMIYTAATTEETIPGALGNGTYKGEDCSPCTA
Assay: [3H]-TCA uptake assay (NTCP inhibition)
Format: cell-based
How it was run: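 PTH and HepG2-NTCP cells kept 24 h in PMM to induce NTCP, then exposed 2 h to test compounds or DMSO. Uptake of 1 μM [3H]-taurocholate in Na+ Ringer's buffer (145 mM Na) ran 15 min at 37° C. Cells washed, lysed in 1% Triton X-100, and radioactivity counted by liquid scintillation.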

[1] = given as a range, assay not given
[2] = given as a range, marked * (asterisk not explained)
[3] = IC50, given as a range, assay not given
[4] = IC50, given as a range, marked * (asterisk not explained)

Compound: CCC1NC(=O)C(C2OC(OCc3ccccc3OC)CC2C)N(C)C(=O)C(C(C)C)N(C)C(=O)C(CC(C)C)N(C)C(=O)C(CC(C)C)N(C)C(=O)C(C)NC(=O)C(C)NC(=O)C(CC(C)C)N(C)C(=O)C(C(C)C)NC(=O)C(CC(C)C)N(C)C(=O)CN(C)C1=O (single isomer, unassigned) [Compound 82B]
- IC50 [1]: 1 to 1000 nM

Compound: CCC1NC(=O)C(C2OC(Oc3cc(OC)cc(OCC4CCN(C)CC4)c3)CC2C)N(C)C(=O)C(C(C)C)N(C)C(=O)C(CC(C)C)N(C)C(=O)C(CC(C)C)N(C)C(=O)C(C)NC(=O)C(C)NC(=O)C(CC(C)C)N(C)C(=O)C(C(C)C)NC(=O)C(CC(C)C)N(C)C(=O)CN(C)C1=O (centres unmarked) [Compound 70-o]
- IC50 [2]: 1000 to 100000 nM

Compound: CCC1NC(=O)C(C2OC(OCc3cccc(S(=O)(=O)NCC(C)C)c3)CC2C)N(C)C(=O)C(C(C)C)N(C)C(=O)C(CC(C)C)N(C)C(=O)C(CC(C)C)N(C)C(=O)C(C)NC(=O)C(C)NC(=O)C(CC(C)C)N(C)C(=O)C(C(C)C)NC(=O)C(CC(C)C)N(C)C(=O)CN(C)C1=O [Compound 76A, [2-((2R,3R)-5-(3-(N-isobutylsulfamoyl)benzyloxy)-3-methyltetrahydrofuran-2-yl)-2-(methylamino)acetic acid]^1-cyclosporin A]
- IC50 [3]: 1000 to 10000 nM

Compound: CCC1NC(=O)C(C2OC(Sc3ccccc3)CC2C)N(C)C(=O)C(C(C)C)N(C)C(=O)C(CC(C)C)N(C)C(=O)C(CC(C)C)N(C)C(=O)C(C)NC(=O)C(C)NC(=O)C(CC(C)C)N(C)C(=O)C(C(C)C)NC(=O)C(CC(C)C)N(C)C(=O)CN(C)C1=O [Compound 1B, [2-((2R,3R)-3-methyl-5-(phenylthio)tetrahydrofuran-2-yl)-2-(methylamino)acetic acid]^1-cyclosporin A]
- IC50 [3]: 1000 to 100000 nM

Compound: CCC1NC(=O)C(C2OC(Oc3cccc(OCc4ccc5c(c4)OCO5)c3)CC2C)N(C)C(=O)C(C(C)C)N(C)C(=O)C(CC(C)C)N(C)C(=O)C(CC(C)C)N(C)C(=O)C(C)NC(=O)C(C)NC(=O)C(CC(C)C)N(C)C(=O)C(C(C)C)NC(=O)C(CC(C)C)N(C)C(=O)CN(C)C1=O (centres unmarked) [Compound 18A-o]
- IC50 [2]: 1000 to 100000 nM

Compound: CCCOc1cccc(OC2CC(C)C(C3C(=O)NC(CC)C(=O)N(C)CC(=O)N(C)C(CC(C)C)C(=O)NC(C(C)C)C(=O)N(C)C(CC(C)C)C(=O)NC(C)C(=O)NC(C)C(=O)N(C)C(CC(C)C)C(=O)N(C)C(CC(C)C)C(=O)N(C)C(C(C)C)C(=O)N3C)O2)c1 (centres unmarked) [Compound 31A-o]
- IC50 [4]: 1000 to 100000 nM

Compound: CCOc1cccc(SC2CC(C)C(C3C(=O)NC(CC)C(=O)N(C)CC(=O)N(C)C(CC(C)C)C(=O)NC(C(C)C)C(=O)N(C)C(CC(C)C)C(=O)NC(C)C(=O)NC(C)C(=O)N(C)C(CC(C)C)C(=O)N(C)C(CC(C)C)C(=O)N(C)C(C(C)C)C(=O)N3C)O2)c1 [Compound 29A, [2-((2R,3R)-5-(3-ethoxyphenylthio)-3-methyltetrahydrofuran-2-yl)-2-(methylamino)acetic acid]^1-cyclosporin A]
- IC50 [1]: 1 to 1000 nM

Compound: CCC1NC(=O)C(C2OC(SCc3cccc(OC)c3)CC2C)N(C)C(=O)C(C(C)C)N(C)C(=O)C(CC(C)C)N(C)C(=O)C(CC(C)C)N(C)C(=O)C(C)NC(=O)C(C)NC(=O)C(CC(C)C)N(C)C(=O)C(C(C)C)NC(=O)C(CC(C)C)N(C)C(=O)CN(C)C1=O (centres unmarked) [Compound 81A-s]
- IC50 [4]: 1000 to 100000 nM

Compound: CCC1NC(=O)C(C2OC(Oc3cc(Cl)cc(OCc4ccccc4)c3)CC2C)N(C)C(=O)C(C(C)C)N(C)C(=O)C(CC(C)C)N(C)C(=O)C(CC(C)C)N(C)C(=O)C(C)NC(=O)C(C)NC(=O)C(CC(C)C)N(C)C(=O)C(C(C)C)NC(=O)C(CC(C)C)N(C)C(=O)CN(C)C1=O (centres unmarked) [Compound 63-o]
- IC50 [4]: 1000 to 100000 nM

Compound: CCC1NC(=O)C(C2OC(Sc3ccc(OC)cc3)CC2C)N(C)C(=O)C(C(C)C)N(C)C(=O)C(CC(C)C)N(C)C(=O)C(CC(C)C)N(C)C(=O)C(C)NC(=O)C(C)NC(=O)C(CC(C)C)N(C)C(=O)C(C(C)C)NC(=O)C(CC(C)C)N(C)C(=O)CN(C)C1=O [Compound 26A, [2-((2R,3R)-5-(4-methoxyphenylthio)-3-methyltetrahydrofuran-2-yl)-2-(methylamino)acetic acid]^1-cyclosporin A]
- IC50 [1]: 1 to 1000 nM

Compound: CCC1NC(=O)C(C2OC(Oc3cc(OCCOC)cc(OCc4cccs4)c3)CC2C)N(C)C(=O)C(C(C)C)N(C)C(=O)C(CC(C)C)N(C)C(=O)C(CC(C)C)N(C)C(=O)C(C)NC(=O)C(C)NC(=O)C(CC(C)C)N(C)C(=O)C(C(C)C)NC(=O)C(CC(C)C)N(C)C(=O)CN(C)C1=O (centres unmarked) [Compound 56-o]
- IC50 [2]: 1000 to 100000 nM

Compound: CCC1NC(=O)C(C2OC(Oc3cc(OC)cc(OC)c3)CC2C)N(C)C(=O)C(C(C)C)N(C)C(=O)C(CC(C)C)N(C)C(=O)C(CC(C)C)N(C)C(=O)C(C)NC(=O)C(C)NC(=O)C(CC(C)C)N(C)C(=O)C(C(C)C)NC(=O)C(CC(C)C)N(C)C(=O)CN(C)C1=O [Compound 38A-o, [2-((2R,3R)-5-(3,5-dimethoxphenoxy)-3-methyltetrahydrofuran-2-yl)-2-(methylamino)acetic acid]^1-cyclosporin A]
- IC50 [4]: 1000 to 100000 nM

Compound: CC[C@@H]1NC(=O)[C@H]([C@@H]2OC(Sc3cccc(OCc4ccc(F)cc4Cl)c3)C[C@H]2C)N(C)C(=O)[C@H](C(C)C)N(C)C(=O)[C@H](CC(C)C)N(C)C(=O)[C@H](CC(C)C)N(C)C(=O)[C@@H](C)NC(=O)[C@H](C)NC(=O)[C@H](CC(C)C)N(C)C(=O)[C@H](C(C)C)NC(=O)[C@H](CC(C)C)N(C)C(=O)CN(C)C1=O (stereo partly drawn) [Compound 23A, [2-((2R,3R)-5-(3-(2-chloro-4-fluorobenzyloxy)phenylthio)-3-methyltetrahydrofuran-2-yl)-2-(methylamino)acetic acid]^1-cyclosporin A]
- IC50 (given as a range, assay not given, read-out: IC50): 1 to 1000 nM

Compound: CCC1NC(=O)C(C2OC(Oc3ccc(NC(C)=O)cc3)CC2C)N(C)C(=O)C(C(C)C)N(C)C(=O)C(CC(C)C)N(C)C(=O)C(CC(C)C)N(C)C(=O)C(C)NC(=O)C(C)NC(=O)C(CC(C)C)N(C)C(=O)C(C(C)C)NC(=O)C(CC(C)C)N(C)C(=O)CN(C)C1=O (centres unmarked) [Compound 4A-o]
- IC50 [4]: 1000 to 100000 nM

Compound: CCCOc1cccc(SC2CC(C)C(C3C(=O)NC(CC)C(=O)N(C)CC(=O)N(C)C(CC(C)C)C(=O)NC(C(C)C)C(=O)N(C)C(CC(C)C)C(=O)NC(C)C(=O)NC(C)C(=O)N(C)C(CC(C)C)C(=O)N(C)C(CC(C)C)C(=O)N(C)C(C(C)C)C(=O)N3C)O2)c1 [Compound 31A, [2-((2R,3R)-3-methyl-5-(3-propoxyphenylthio)tetrahydrofuran-2-yl)-2-(methylamino)acetic acid]^1-cyclosporin A]
- IC50 [1]: 1 to 1000 nM

Compound: CCC1NC(=O)C(C2OC(Oc3ccc(OC)cc3)CC2C)N(C)C(=O)C(C(C)C)N(C)C(=O)C(CC(C)C)N(C)C(=O)C(CC(C)C)N(C)C(=O)C(C)NC(=O)C(C)NC(=O)C(CC(C)C)N(C)C(=O)C(C(C)C)NC(=O)C(CC(C)C)N(C)C(=O)CN(C)C1=O (centres unmarked) [Compound 26A-o]
- IC50 [4]: 1000 to 100000 nM

Compound: CCC1NC(=O)C(C2OC(Sc3cccc(NC)c3)CC2C)N(C)C(=O)C(C(C)C)N(C)C(=O)C(CC(C)C)N(C)C(=O)C(CC(C)C)N(C)C(=O)C(C)NC(=O)C(C)NC(=O)C(CC(C)C)N(C)C(=O)C(C(C)C)NC(=O)C(CC(C)C)N(C)C(=O)CN(C)C1=O [Compound 47A, [2-((2R,3R)-3-methyl-5-(3-(methylamino)phenylthio)tetrahydrofuran-2-yl)-2-(methylamino)acetic acid]^1-cyclosporin A]
- IC50 [1]: 1 to 1000 nM

Compound: CCC1NC(=O)C(C2OC(OCc3cccc(Cl)c3OC)CC2C)N(C)C(=O)C(C(C)C)N(C)C(=O)C(CC(C)C)N(C)C(=O)C(CC(C)C)N(C)C(=O)C(C)NC(=O)C(C)NC(=O)C(CC(C)C)N(C)C(=O)C(C(C)C)NC(=O)C(CC(C)C)N(C)C(=O)CN(C)C1=O (single isomer, unassigned) [Compound 88B]
- IC50 [1]: 1 to 1000 nM

Compound: CCC1NC(=O)C(C2OC(Oc3ccc(CN4CCN(C)CC4)cc3)CC2C)N(C)C(=O)C(C(C)C)N(C)C(=O)C(CC(C)C)N(C)C(=O)C(CC(C)C)N(C)C(=O)C(C)NC(=O)C(C)NC(=O)C(CC(C)C)N(C)C(=O)C(C(C)C)NC(=O)C(CC(C)C)N(C)C(=O)CN(C)C1=O (centres unmarked) [Compound 7A-o]
- IC50 [4]: 1000 to 100000 nM

Compound: CCCOc1cc(OC2CC(C)C(C3C(=O)NC(CC)C(=O)N(C)CC(=O)N(C)C(CC(C)C)C(=O)NC(C(C)C)C(=O)N(C)C(CC(C)C)C(=O)NC(C)C(=O)NC(C)C(=O)N(C)C(CC(C)C)C(=O)N(C)C(CC(C)C)C(=O)N(C)C(C(C)C)C(=O)N3C)O2)ccc1Cl (centres unmarked) [Compound 42A-o]
- IC50 [4]: 1000 to 100000 nM

Compound: CCC1NC(=O)C(C2OC(Sc3ccc(N4CCOCC4)cc3)CC2C)N(C)C(=O)C(C(C)C)N(C)C(=O)C(CC(C)C)N(C)C(=O)C(CC(C)C)N(C)C(=O)C(C)NC(=O)C(C)NC(=O)C(CC(C)C)N(C)C(=O)C(C(C)C)NC(=O)C(CC(C)C)N(C)C(=O)CN(C)C1=O [Compound 3A, [2-((2R,3R)-3-methyl-5-(4-morpholinophenylthio)tetrahydrofuran-2-yl)-2-(methylamino)acetic acid]^1-cyclosporin A]
- IC50 [1]: 1 to 1000 nM

Compound: CCC1NC(=O)C(C2OC(Oc3cccc(OCc4ccc(CN(C)C)cc4)c3)CC2C)N(C)C(=O)C(C(C)C)N(C)C(=O)C(CC(C)C)N(C)C(=O)C(CC(C)C)N(C)C(=O)C(C)NC(=O)C(C)NC(=O)C(CC(C)C)N(C)C(=O)C(C(C)C)NC(=O)C(CC(C)C)N(C)C(=O)CN(C)C1=O (centres unmarked) [Compound 13A-o]
- IC50 [2]: 1000 to 100000 nM

Compound: CCC1NC(=O)C(C2OC(Oc3ccc(Cl)c(OCc4ccccc4)c3)CC2C)N(C)C(=O)C(C(C)C)N(C)C(=O)C(CC(C)C)N(C)C(=O)C(CC(C)C)N(C)C(=O)C(C)NC(=O)C(C)NC(=O)C(CC(C)C)N(C)C(=O)C(C(C)C)NC(=O)C(CC(C)C)N(C)C(=O)CN(C)C1=O (centres unmarked) [Compound 44A-o]
- IC50 [4]: 1000 to 100000 nM
